{
  "source": "patent US20260108588A1",
  "about": "“A COMPLEX COMPRISING A ALPHA-LACTALBUMIN AND A FATTY ACID OR LIPID FOR USE IN THE TREATMENT OR PREVENTION OF CANCER” (LINNANE PHARMA AB, priority 2022, published 2026)",
  "key": {"[1]": {"experiment": "Giant unilamellar vesicle experiments, membrane response", "settings": "21 μM BAMLET, one hour", "experimental": "Giant unilamellar vesicles (GUVs) were formed by hydrogel-assisted swelling according to established protocols^29,30, with modifications previously described^31. Briefly, glass cover slips were sonicated in 1 M NaOH solution (30 minutes), rinsed in Milli-Q water (three times) and further sonicated (30 minutes). Coverslips were plasma etched (1 min) using a BD-20 laboratory corona treater (Electro Technic Products Inc.) to render the surface clean and hydrophilic. A thin film of 1% (w/v) solution of molten ultra-low gelling temperature type IX-A agarose (Sigma) was deposited on the coverslip to provide a reaction bed for GUV formation. The cover slips were placed in AttoFluor® cell chambers (ThermoFisher Scientific). Following, 25 μl of egg phosphatidylcholine (#840051P—Avanti Polar Lipids) in chloroform (25 mg/ml) doped with 4% v/v rhodamine C (1 mg/ml, Sigma) were deposited onto the gelled agarose surface, and the solvent evaporated with nitrogen gas. The lipid-hydrogel film was rehydrated with 200 mM sucrose in PBS, pH 7.2 for one hour and then transferred into 200 mM glucose in PBS, pH 7.2 for sedimentation. GUVs were allowed to settle overnight before seeded on the coverslips for visualization after treatment with 21 μM BAMLET for one hour."}, "[2]": {"system": "DLD1 colorectal carcinoma cells", "experiment": "Live cell imaging assay, cellular uptake of labelled BAMLET", "format": "cell-based, human", "settings": "21 μM, one hour", "experimental": "To visualize the cellular uptake of BAMLET, cells were seeded on 6-well ibidi chambers (3.5×10^4 cells/well) overnight and then treated with Janelia Fluor-549 labeled (TOCRIS, Cat #6147) BAMLET mixed with unlabelled BAMLET (21 μM) for one hour at 37° C. The nuclei were counterstained for five minutes with DAPI (Abcam Cat #ab228549, 1:1,000) and uptake of labelled BAMLET was captured with the LSM 900 laser scanning confocal microscope with oil immersion ×63 objectives (Carl Zeiss)."}, "[3]": {"system": "DLD1 colorectal adenocarcinoma cells", "experiment": "TUNEL assay", "format": "cell-based, human", "settings": "7 μM, 21 μM and 35 μM, one hour", "experimental": "DNA fragmentation was detected using the terminal deoxynucleotidyl transferase dUTP nick end-labeling (TUNEL) assay (Click-IT TUNEL Alexa Fluor 488 imaging assay kit, ThermoFisher Scientific, #C10245). DLD1 cells were seeded in 8-well chamber slide (2×10^4 cells/well) cultured overnight (37° C., 5% CO2) and incubated with BAMLET 7 μM, 21 μM and 35 μM for one hour in serum-free RPMI-1640 at 37° C. Cells were fixed (2% PFA, 15 minutes), permeabilized (0.25% Triton X-100 in PBS, 20 minutes) and incubated with TUNEL reaction mixture containing TdT for 60 minutes at 37° C. After the TUNEL reaction, cells were incubated with Click-iT reaction mixture for 30 minutes. Cells were counterstained with Hoechst 33342 (1:1000, 15 minutes, ThermoFisher Scientifi, Cat #62249), mounted in Fluoromount aqueous mounting media (Sigma, Cat #4680), and examined by LSM 900 confocal microscopy (Carl Zeiss). Fluorescence intensities were quantified by ImageJ."}, "[4]": {"system": "intestinal tumors of Apc^Min/+ mice", "experiment": "Intestinal cancer model in Apc^Min/+ mice, BAMLET in the drinking water (eight weeks and long term)", "format": "in vivo", "settings": "vs sham", "experimental": "Apc^Min/+ mice were obtained from Jackson Laboratories at about eight weeks of age. Genotyping was performed by PCR analysis of genomic DNA obtained from blood collected from the retro-orbital sinus. Multiple tumors were developed in the small intestine at eight to ten weeks. Mice were acclimated for about two weeks at the local animal facility at BMC, Lund University in order to reduce stress from transportation.\nFor BAMLET prophylaxis protocol, ten-week-old female Apc^Min/+ mice (n=10 mice per group) were provided daily with BAMLET (20 mg/day in 5 ml PBS) in the drinking water for eight weeks and sacrificed at 18 weeks of age. A similar treatment was used in the survival study groups where mice were observed until 37 weeks of age.\nMice were sacrificed by isoflurane inhalation. Tumor enumeration and sample collection was presented as previously described^28. Tumor numbers and size were determined using a dissecting microscope (Olympus) and evaluated by three blinded investigators.\nThe opened intestinal segments were spread flat between sheets of filter paper and fixed overnight in 10% neutral buffered formalin. Formalin-fixed sections were transferred to 70% ethanol and stained with 0.2% methylene blue (Sigma, #M9140). Stained sections were rinsed in deionized water and imaged by a dissecting microscope.\nSwiss rolls of longitudinally opened intestinal segments were fixed overnight in 10% neutral buffered formalin. Samples were embedded in paraffin and 5 μm thick sections were further processed for histology and immunohistochemistry using antibodies for bovine alpha-Lactalbumin (ThermoFisher Scientific, Cat #A10-128A), β-catenin (CellSignaling, Cat #9562), Cyclin D1 (ThermoFisher Scientific, Cat #SC8396), Ki-67 (BD Biosciences, Cat #556003), VEGF (Abcam, Cat #ab46154), PD-1 (Abcam, Cat #ab214421) and TTF-1 (Abcam, Cat #ab227652) as previously described^28 with slight modifications. Citrate buffer (Dako Target Retrieval Solution, Agilent, Cat #S1699) was used for antigen retrieval for Cyclin D1, Ki-67, VEGF, bovine alpha-Lactalbumin and β-catenin staining. EDTA buffer (Abcam, Cat #ab64216) was used for antigen retrieval for TTF-1 staining. Immunohistochemistry was quantified by ImageJ. For Hematoxylin-Eosin (H&E) staining, Hematoxylin (ThermoFisher Scientific, Cat #7211) was used followed by Eosin-Y (ThermoFisher Scientific, Cat #7111) for counterstaining. Images were captured using the AX10 microscope or the Hamamatzu Nanozoomer scanner (Carl Zeiss) and the DAB-positive beta-catenin antibody fields (4-10) for each organ cross-sections were quantified by ImageJ."}, "[5]": {"system": "DLD1 cells", "experiment": "Cell death assays (Prestoblue and ATPlite)", "format": "cell-based, human", "settings": "7, 21 and 35 μM; Prestoblue and ATPlite", "experimental": "Two assays were used as an indirect measure of cell death. Luminescence-based ATPlite™ kit (Perkin Elmer) as well as the Prestoblue assay (ThermoFisher Scientific). Cells (5×10^4 cells/well) were seeded in serum-free RPMI-1640 on 96-well plates and treated with BAMLET and alpha1-oleate at different concentration (7, 21, and 35 μM) and incubated for one hour. Afterward, FCS was added at concentration of 5% and the cells were continuously incubated for two hours at 37° C., at the end of which the two kits were used according to manufactures' instructions. Luminescence and fluorescence were measured using a microplate reader (Infinite F200, Tecan). The experiments were performed in triplicate and repeated twice."}, "[6]": {"system": "intestine of healthy C57BL/6 mice", "experiment": "Real-time in vivo fluorescence imaging of BAMLET in healthy mice", "settings": "oral gavage"}, "[7]": {"system": "healthy C57BL/6 mice", "experiment": "BAMLET in healthy C57BL/6 mice: macroscopic inspection and intestinal gene expression analysis", "quoted_text": "Approximately 5 mg of tissue was homogenized using a Tissuelyser (Qiagen) and total RNA was extracted using the RNeasy kit (Qiagen), amplified using a GeneChip 3'IVT Express Kit, hybridized onto Mouse Genome 430 PM array strips, and scanned using the GeneAtlas system (Affymetrix). Data was normalized using Robust Multi Average implemented in the Transcriptome Analysis Console software (v.4.0.1.36, Applied Biosystems, ThermoFisher Scientific). Relative expression was analyzed by ANOVA using the empirical Bayes method, and genes with an absolute fold change >1.5 or 2.0 were considered differentially expressed.\nTo identify effects on healthy tissues, healthy C57BL/6 mice received BAMLET by oral gavage or in the drinking water (FIG. 6). The effects were evaluated by macroscopic inspection of intestinal tissues and gene expression analysis."}, "[8]": {"settings": "long-term BAMLET in drinking water"}},
  "data": [
    {"substance": "BAMLET", "values": [
      {"measurement": "membrane response", "setting": "[1]", "result": "triggered rapid blebbing, tubulation and eventual vesicle division"},
      {"measurement": "uptake of labelled BAMLET", "setting": "[2]", "result": "rapidly internalized into the cytoplasm and nuclei"},
      {"measurement": "TUNEL staining (DNA strand breaks)", "setting": "[3]", "result": "Dose-dependent increase"},
      {"measurement": "polyp number and polyp size", "setting": "[4]; 20 mg/day in drinking water, after eight weeks", "result": "markedly reduced"},
      {"measurement": "loss of body weight", "setting": "[4]; [8]", "result": "prevented"},
      {"measurement": "survival (Kaplan-Meier analysis)", "setting": "[4]; [8]", "result": "increase in survival"},
      {"measurement": "total polyp number and polyp size", "setting": "[4]; [8]", "result": "reduced"},
      {"measurement": "cell viability", "setting": "[5]", "result": "rapid dose-dependent reduction"},
      {"measurement": "BAMLET retention in the intestines of healthy mice", "setting": "[6]", "result": "lack of BAMLET retention"},
      {"measurement": "inflammatory or necrotic changes in the intestines or peripheral organs", "setting": "[7]; gavage or drinking water, vs untreated controls", "result": "no evidence of inflammatory or necrotic changes"},
      {"measurement": "genes involved in lipid metabolism, glucose metabolism, insulin tolerance and immune regulation", "setting": "[7]; intestinal tissue", "result": "significantly affected"},
      {"measurement": "toxic response (gene expression)", "setting": "[7]; intestinal tissue", "result": "no evidence of a toxic response"},
      {"measurement": "number of regulated genes", "setting": "[7]; intestinal tissue, cut-off fold change ≥1.5, P<0.05", "result": "about 150 genes"},
      {"measurement": "macroscopic appearance of tissues outside the intestinal tract", "setting": "[7]; mouse, in vivo", "result": "No changes in macroscopic appearance"},
      {"measurement": "organ weights", "setting": "[7]; mouse, in vivo", "result": "no change in organ weights"}
    ]}
  ]
}
